Reference: US20210253651A1, “METHOD FOR PRODUCING ORGANIC COMPOUND-ENCAPSULATING FERRITIN” (Ajinomoto Co., Inc., priority 2018, published 2021)

Assays:
[1] = target: T1, FTH ferritin (Homo sapiens, UniProt P02794); assay: one-step process incorporation of small molecule agents into FTH ferritin; type: physicochemical; conditions: for Incorporation efficiency (wt %) / Number of agent incorporated: 60 min; for Optimal pH in reaction: pH of buffer giving the largest amount of incorporation within ferritin
T1 construct: made in house; host or cells: Escherichia coli BL21 (DE3), plasmid pET20-FTH
Method: All of the reactions were performed in 0.1 mL volume. […] The absorbances were measured using spectrophotometer (DU-800, Beckman Coulter Inc.) for these solutions, and the concentration of contained protein was determined using the protein assay CBB solution (Nacalai Tesque, Inc.) as well as bovine albumin as a standard. Absorbances at 280 nm and 480 nm were measured for Rhodamine B and Congo Red. […] Then, after the absorbances were calibrated based on the absorbances that were derived from the proteins and presumed by the amount of contained protein quantified using the protein assay CBB solution, the concentrations of small molecule agents were determined based on the calibration curves obtained by the absorbances of the molecules. […] As a result, the one-step process enabled incorporating also the small molecule agents with different physical properties such as molecular weight and pKa simply and easily.

[2] = single or first pKa value; cited from earlier work
[3] = cited from earlier work

T1 sequence (P02794 whole entry): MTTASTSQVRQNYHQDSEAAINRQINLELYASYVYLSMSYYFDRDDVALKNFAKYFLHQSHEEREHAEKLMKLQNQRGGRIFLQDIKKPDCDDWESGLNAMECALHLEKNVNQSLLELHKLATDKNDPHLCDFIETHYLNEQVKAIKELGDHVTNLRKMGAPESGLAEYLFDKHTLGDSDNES

Compound | Incorporation efficiency (wt %) ([1]; pH 4, 60° C.) | Number of agent incorporated ([1]; pH 4, 60° C.) | Optimal pH in reaction [1] | pKa [2] | logP [3] | Incorporation efficiency (wt %) ([1]; pH 4, 40° C.) | Number of agent incorporated ([1]; pH 4, 40° C.) | Number of agent incorporated ([1]; pH 6, 20° C.) | Incorporation efficiency (wt %) ([1]; pH 6, 40° C.) | Number of agent incorporated ([1]; pH 6, 40° C.) | Incorporation efficiency (wt %) ([1]; pH 6, 60° C.) | Number of agent incorporated ([1]; pH 6, 60° C.) | Incorporation efficiency (wt %) ([1]; pH 8, 40° C.) | Number of agent incorporated ([1]; pH 8, 40° C.) | Incorporation efficiency (wt %) ([1]; pH 10, 40° C.) | Number of agent incorporated ([1]; pH 10, 40° C.) | further results
CN1CC(=O)NC1=N [Creatinine] | 0.5 | 24.8 | 4 | 2.96 | −1.6 | – | – | – | – | – | – | – | – | – | – | – | Incorporation efficiency (wt %) ([1]; pH 4, 20° C.): 0.4 wt %; Number of agent incorporated ([1]; pH 4, 20° C.): 15.8
Nc1cc(N2CCCCC2)nc(N)[n+]1[O-] [Minoxidil] | – | – | 6 | 4.61 | 1.24 | 0.3 | 8.3 | 65.6 | 0.8 | 20.0 | 0.5 | 12.0 | 0.5 | 12.0 | 0.2 | 4.3 | Incorporation efficiency (wt %) ([1]; pH 6, 20° C.): 2.6 wt %
Cc1cc2nc3c(=O)[nH]c(=O)nc-3n(C[C@H](O)[C@H](O)[C@H](O)CO)c2cc1C [Riboflavin] | – | – | 10 | 10.2 | – | – | 6.4 | – | – | 6.5 | – | – | – | 6.4 | – | 7.7 | –
Rhodamine B | 0.4 | 4.3 | 5 | 3.1 | 1.78 | – | – | – | – | – | 0.3 | 3.5 | – | – | 0.3 | 3.2 | Incorporation efficiency (wt %) ([1]; pH 5, 60° C.): 1.5 wt %; Number of agent incorporated ([1]; pH 5, 60° C.): 16.7; Incorporation efficiency (wt %) ([1]; pH 7, 60° C.): 0.2 wt %; Number of agent incorporated ([1]; pH 7, 60° C.): 2.3; Incorporation efficiency (wt %) ([1]; pH 8, 20° C.): 1.0 wt %; Number of agent incorporated ([1]; pH 8, 20° C.): 11.1; Incorporation efficiency (wt %) ([1]; pH 8, 60° C.): 0.2 wt %; Number of agent incorporated ([1]; pH 8, 60° C.): 1.8; Incorporation efficiency (wt %) ([1]; pH 9, 30° C.): 0.7 wt %; Number of agent incorporated ([1]; pH 9, 30° C.): 7.6; Incorporation efficiency (wt %) ([1]; pH 9, 40° C.): 0.4 wt %; Number of agent incorporated ([1]; pH 9, 40° C.): 3.9; Incorporation efficiency (wt %) ([1]; pH 9, 50° C.): 0.2 wt %; Number of agent incorporated ([1]; pH 9, 50° C.): 2.6; Incorporation efficiency (wt %) ([1]; pH 9, 60° C.): 0.2 wt %; Number of agent incorporated ([1]; pH 9, 60° C.): 2.5; Incorporation efficiency (wt %) ([1]; pH 10, 50° C.): 0.2 wt %; Number of agent incorporated ([1]; pH 10, 50° C.): 2.6; Incorporation efficiency (wt %) ([1]; pH 10, 60° C.): 0.6 wt %; Number of agent incorporated ([1]; pH 10, 60° C.): 6.6
NC(=O)c1cccnc1 [Nicotinamide] | – | – | 4 | 3.35 | −0.37 | 0.4 | 15.6 | – | 0.2 | 6.8 | – | – | 0.3 | 13.9 | 0.2 | 7.6 | –
NC(N)=Nc1nc(CSCCC(N)=NS(N)(=O)=O)cs1 [Famotidine] | – | – | 6 | 8.38 | – | – | 0.0 | 36.9 | – | 15.1 | – | 23.4 | – | 8.4 | – | 5.1 | –
